Experiment [1] concerns the target T1, Ec-FtsZ (Escherichia coli, UniProt P0A9A6).
T1 construct: N-terminal His tag, from strain MG1655
T1 sequence (P0A9A6 1-383): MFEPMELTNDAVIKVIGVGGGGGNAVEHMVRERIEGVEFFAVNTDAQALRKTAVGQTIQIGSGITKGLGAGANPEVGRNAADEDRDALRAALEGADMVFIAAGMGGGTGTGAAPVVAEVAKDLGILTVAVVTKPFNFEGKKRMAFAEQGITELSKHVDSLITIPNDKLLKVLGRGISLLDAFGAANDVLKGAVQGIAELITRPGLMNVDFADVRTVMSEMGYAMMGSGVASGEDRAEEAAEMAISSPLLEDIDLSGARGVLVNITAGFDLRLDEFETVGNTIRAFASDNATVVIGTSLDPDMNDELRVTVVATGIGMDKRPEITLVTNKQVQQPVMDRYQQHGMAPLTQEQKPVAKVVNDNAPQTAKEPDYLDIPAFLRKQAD
Kind of experiment: enzyme-coupled GTPase assay, specific activity. Format: biochemical.

Experiment [2] concerns the target T1, Ec-FtsZ. The experiment in a line: enzyme-coupled GTPase assay, dose response. In kind it is biochemical.
In experiment [3] the target is T1, Ec-FtsZ. The experiment in a line: enzyme-coupled (PK/LDH, NADH) GTPase assay. Format: biochemical.
Experiment [4] has as its target T2, (UniProt Q5GS34).
T2 construct: gene ftsZ; full-length, N-terminal His6 tag
Kind of experiment: enzyme-coupled (PK/LDH, NADH) GTPase assay. In kind it is biochemical, Wolbachia endosymbiont of Brugia malayi.

pIC50: −log10 of the molar value.

T2 sequence (Q5GS34 1-396 limits assumed): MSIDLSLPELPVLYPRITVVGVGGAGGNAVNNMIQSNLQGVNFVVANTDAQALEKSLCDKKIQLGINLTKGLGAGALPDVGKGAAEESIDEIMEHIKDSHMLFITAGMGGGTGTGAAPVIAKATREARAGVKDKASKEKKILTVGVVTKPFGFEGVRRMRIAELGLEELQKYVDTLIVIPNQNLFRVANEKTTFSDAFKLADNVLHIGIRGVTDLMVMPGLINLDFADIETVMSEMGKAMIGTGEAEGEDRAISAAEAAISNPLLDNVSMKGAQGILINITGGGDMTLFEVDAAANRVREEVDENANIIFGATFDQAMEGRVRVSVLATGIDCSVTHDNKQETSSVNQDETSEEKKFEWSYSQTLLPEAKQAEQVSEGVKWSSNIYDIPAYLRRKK

In the case of `Nc1nc2c(ncn2[C@@H]2O[C@H](COP(=O)(O)OP(=O)(O)OP(=O)(O)O)[C@@H](O)[C@H]2O)c(=O)[nH]1` [GTP], in experiment [1], the “enzyme-coupled GTPase assay, specific activity” value turned out to be 0.22 ± 0.015 µmol/min/mg.
Regarding `COc1ccc(-c2ccc(C(C(=O)NC3CCCCC3)N(Cc3ccccn3)C(=O)c3ccccc3)cc2)cc1` (centres unmarked) [AV-C6], the “enzyme-coupled GTPase assay, dose response” value in experiment [2] is “both compounds inhibited Ec-FtsZ activity although each was slightly less potent”.
Same read-out and setting: then `CCCCNC(=O)C(c1ccc2cc(O)ccc2c1)N(Cc1ccc(Cl)cc1)C(=O)CCC` (centres unmarked) [N938], with “both compounds inhibited Ec-FtsZ activity although each was slightly less potent”.
In the case of `COc1ccc2cc3[n+](cc2c1OC)CCc1cc2c(cc1-3)OCO2` [berberine], the pIC50 in experiment [3] is 3.62; in experiment [4] it was 3.49.

Source of the values: article PMC3226453, “Targeting the Wolbachia Cell Division Protein FtsZ as a New Approach for Antifilarial Therapy” (PLoS Neglected Tropical Diseases, 2011).
